Source: PubChem BioAssay (NCI)
Several values for one entry are separate records, joined by “and”; a condition that tells them apart may be missing. Equal entries are not always repeated.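 Method: 48-hour compound exposure of cells in 96-well plates, five concentrations, linear interpolation of endpoints. Abbreviation: GI50, concentration required for 50% inhibition of growth. TGI: total growth inhibition.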

Key:
Assay in all cases: NCI tumour cell line growth inhibition, 48 h
SK-MEL-28 melanoma = test system: SK-MEL-28 melanoma
KM12 colon = test system: KM12 colon
MDA-MB-231 breast = test system: MDA-MB-231 breast
SF-295 CNS = test system: SF-295 CNS
HL-60(TB) leukemia = test system: HL-60(TB) leukemia
SK-MEL-5 melanoma = test system: SK-MEL-5 melanoma
OVCAR-4 ovarian = test system: OVCAR-4 ovarian
SN12C renal = test system: SN12C renal
MDA-MB-435 = test system: MDA-MB-435
ACHN renal = test system: ACHN renal

Compound | GI50 (SK-MEL-28 melanoma) [µM] | TGI (SK-MEL-28 melanoma) [µM] | GI50 (KM12 colon) [µM] | TGI (KM12 colon) | GI50 (MDA-MB-231 breast) [µM] | TGI (MDA-MB-231 breast) [µM] | GI50 (SF-295 CNS) [µM] | TGI (SF-295 CNS) [µM] | GI50 (HL-60(TB) leukemia) [µM] | TGI (HL-60(TB) leukemia) | GI50 (SK-MEL-5 melanoma) [µM] | TGI (SK-MEL-5 melanoma) | GI50 (OVCAR-4 ovarian) [µM] | TGI (OVCAR-4 ovarian) [µM] | GI50 (SN12C renal) [µM] | TGI (SN12C renal) [µM] | GI50 (MDA-MB-435) [µM] | TGI (MDA-MB-435) [µM] | GI50 (ACHN renal) [µM] | TGI (ACHN renal) [µM]
COc1ccc(C2=C(c3ccc(OC)c(OC)c3)C(=O)N3CCCC3C2)cc1 (centres undefined) | 73.3 | > 100 | 15.7 | > 100 µM | 22 | > 100 | 29.2 | > 100 | 4.26 | 22.7 µM | 9.03 | > 72.6 µM | 20.6 | > 100 | 45.7 | > 100 | 25.7 | > 100 | 34 | > 100
O=C(Nc1ccc(Oc2cccc(F)c2)c(Cl)c1)c1cnccn1 | 28.6 | > 50 | 0.357 | > 50 µM | 3.28 | > 50 | 1.56 | > 50 | 1.29 | 3.72 µM | 1.79 | > 50 µM | 36.6 | > 50 | 3.6 | > 50 | 0.149 | 0.683 | 3.3 | > 50
Cc1nn(-c2ccc([N+](=O)[O-])cc2)c2ncnc(N/N=C/c3ccccc3O)c12 | 0.443 | 5.53 | 0.379 | > 100 µM | 0.482 | 3.97 | 1.14 | 10.3 | 0.31 | – | 0.448 | 2.25 µM | 0.202 | 4.62 | 0.399 | 3.17 | 0.654 | > 100 | 0.3 | 1.29
N#Cc1nc2c(S(=O)(=O)c3ccc(Cl)cc3)c(N)n(CCCN3CCOCC3)c2nc1C#N | 4.11 | 15.7 | 12.3 | 34.7 µM | 3.58 | 14.4 | 17.6 | 40.7 | 2.14 | 6.55 µM | 6.67 | 20 µM | 4.78 | > 100 | 10 | > 100 | 2.21 | 5.82 | 3.26 | 15.3
[O-]c1ccccc1/C=N/C(/N=C/c1ccccc1[O-])c1ccccc1O.[O-]c1ccccc1/C=N/C(/N=C/c1ccccc1[O-])c1ccccc1O.[Zr+4] | 17.1 | 78.2 | 38.6 | > 100 µM | 58.2 | > 100 | 31.8 | > 100 | 30.6 | > 100 µM | 22.4 | > 100 µM | 26.1 | > 100 | 57.3 | > 100 | 28.2 | > 100 | 36.1 | > 100
C[C@]12CC[C@@H]3c4ccc(O)cc4CC[C@H]3[C@@H]1Cc1cnc(N)nc12 | 10.7 | 26.1 | 11.8 | 26.8 µM | 13.7 | 32.8 | 15.2 | 42.7 | 22.1 | > 100 µM | 12.8 | 26.1 µM | 32.2 | > 100 | 20.6 | 44.2 | 16.2 | 43.5 | 21.1 | 51.3
Cc1ccc(-c2csc(NC(=O)N3CCN(c4cc5c(cc4F)c(=O)c(C(=O)O)cn5C4CC4)CC3)n2)cc1 | 0.494 | > 100 | 0.458 | > 100 µM | 1.78 | 19.4 | 0.762 | 28.5 | 0.796 | 4.51 µM | 0.889 | 2.51 µM | 2.64 | > 100 | 0.366 | > 100 | 2.06 | > 100 | 0.307 | 4.22
O=C1C(SCCO)=C(SCCO)C(=O)N1c1ccc(-c2ccccc2)cc1 | 2.41 | 6.65 | 7.55 | 20.8 µM | 13.3 | 32.7 | 20.7 | 46.1 | 18.7 | 51.6 µM | 9.46 | 24.6 µM | 0.932 | 3.1 | 5.47 | 19.6 | 4.98 | 12.8 | 1.68 | 3.11
O=c1c(O)c(-c2ccc(O)c(O)c2)oc2cc(O)cc(O)c12 | 17.9 | > 100 | 9.4 | 59.3 µM and > 100 µM | 9.36 | > 100 | 23.1 | > 100 | 10.9 | 65.3 µM and 47.8 µM | 9.24 | 44 µM and > 100 µM | 33.3 | > 100 | 10.5 | > 100 | 5.08 | > 100 | 15.6 | > 100
COc1ccc(CC(=O)c2ccc(O)cc2O)cc1 | > 100 | > 100 | > 100 | > 100 µM | > 100 | > 100 | 46.2 | > 100 | 40.9 | > 100 µM | 48.3 | > 100 µM | > 100 | > 100 | 93.2 | > 100 | > 100 | > 100 | > 100 | > 100
Cc1nn(-c2ccc(Cl)cc2)c2nc3c(nc12)C(=O)C(=O)c1ccccc1-3 | 7.76 | 74.8 | 3.76 | 15.6 µM | 4.31 | 66.3 | 1.72 | 3.43 | 4.32 | > 100 µM | 4.94 | 24.1 µM | 6.08 | > 100 | 2.7 | 12.6 | 6.31 | > 100 | 19.5 | > 100
COc1cc(/C=C/C(=O)c2ccc(F)cc2)ccc1OCCCN1CCN(CC(=O)Nc2ccc(Cl)cc2C(=O)c2ccccc2Cl)CC1 | 3.68 | 12.6 | 5.58 | 22.2 µM | 11.6 | 27.1 | 5.57 | 19 | 4.23 | 25.9 µM | 3.42 | 14.7 µM | 9.48 | 34.5 | 12.7 | 44.3 | 8.19 | 22.5 | 12.5 | 32.3
